Where a name gives a salt, the structure may show the parent alone.
Key:
PDE10A = PDE10A (UniProt Q9Y233); experiment: Measurement of PDE activity (HTRF cAMP kit, recombinant PDE10A); assay type: biochemical, human, rat and mouse; details: substrate 20 nM, 60 minutes at 29° C.
Procedure: a) Measurement of PDE Activity
The recombinant PDE proteins are used in in vitro enzymatic reaction for measurement of PDE activity. These recombinant proteins, including PDE10A (human, rat and mouse PDE10) and isoforms of PDEs 1, 3, 4, and 5, were purchased from commercial vendor BPS Bioscience. The enzymatic activity of PDEs was determined by cAMP measurement kit from CisBio (IBA) using HTRF technology.
The PDE enzymatic reaction was carried out in assay buffer (20 mM Tris-HCl pH 7.5, 10 mM MgCl2, 0.1% bovine serum albumin) containing enzyme and substrate. […] The substrate cyclic nucleotide (cAMP or cGMP) concentration used in the assay was 20 nM for PDE10, and 100 nM for other PDEs. The inhibitory effect of compound was determined by incubating various concentration of inhibitor in the enzymatic assay. […] Next, the compound at varying concentration was mixed with PDE enzyme. The reaction was initiated by addition of cyclic nucleotide substrate, and incubated for 60 minutes at 29° C. The reaction was stopped by addition of lysis buffer from the assay kit. The cAMP-d2 and anti-cAMP cryptate in the lysis buffer detected the level of cAMP left from the PDE hydrolysis reaction. […] Thus, IC50 value of inhibitor can be obtained by plotting inhibitor concentration against PDE activity at that concentration.

[1] = Determination of the microsomal half-life / microsomal clearance, rat liver microsomes; assay type: in vitro ADME; details: 0.5 μM test substance, 0.25 mg of microsomal protein/mL, NADPH, 37° C.
Procedure: (§1) b) Determination of the Microsomal Half-Life:
(§2) The metabolic stability of the compounds of the invention was determined in the following assay.
(§3) The test substances were incubated in a concentration of 0.5 μM as follows:
(§4) 0.5 μM test substance are preincubated together with liver microsomes from different species (from rat, human or other species) (0.25 mg of microsomal protein/mL) in 0.05 M potassium phosphate buffer of pH 7.4 in microtiter plates at 37° C. for 5 min. The reaction is started by adding NADPH (1 mg/mL). After 0, 5, 10, 15, 20 and 30 min, 50 μl aliquots are removed, and the reaction is immediately stopped and cooled with the same volume of acetonitrile. The samples are frozen until analyzed. The remaining concentration of undegraded test substance is determined by MSMS. The half-life (T½) is determined from the gradient of the signal of test substance/unit time plot, it being possible to calculate the half-life of the test substance, assuming first order kinetics, from the decrease in the concentration of the compound with time. The microsomal clearance (mCl) is calculated from mCl=ln 2/T½/(content of microsomal protein in mg/mL)×1000 [mL/min/mg] (modified from references: Di, The Society for Biomoleculur Screening, 2003, 453-462; Obach, DMD, 1999 vol 27. N 11, 1350-1359).

[2] = Determination of the microsomal half-life / microsomal clearance, human liver microsomes; assay type: in vitro ADME; details: 0.5 μM test substance, 0.25 mg of microsomal protein/mL, NADPH, 37° C.
Procedure: as §1, §2, §3, §4

Molecule | IC50 (PDE10A) | Rat mCl [1] | Human mCl [2]
Cn1nc(-c2cccc(F)c2)c2scc(-c3ccncc3)c2c1=O [Example 116, 7-(3-fluorophenyl)-5-methyl-3-(pyridin-4-yl)thieno[2,3-d]pyridazin-4(5H)-one trifluoroacetate] | 200 to 500 nM | – | –
Cn1nc(OC2Cc3ccccc3C2)c2scc(-c3ccncc3)c2c1=O [Example 60, 7-(2,3-dihydro-1H-inden-2-yloxy)-5-methyl-3-(pyridin-4-yl)thieno[2,3-d]pyridazin-4(5H)-one trifluoroacetate] | 200 to 500 nM | – | –
COc1ccccc1-c1nn(C)c(=O)c2c(-c3ccncc3)csc12 [Example 113, 7-(2-methoxyphenyl)-5-methyl-3-(pyridin-4-yl)thieno[2,3-d]pyridazin-4(5H)-one trifluoroacetate] | 200 to 500 nM | – | –
Cn1nc(OCc2nc3ccccc3s2)c2scc(-c3ccncc3)c2c1=O [Example 71, 7-(1,3-benzothiazol-2-ylmethoxy)-5-methyl-3-(pyridin-4-yl)thieno[2,3-d]pyridazin-4(5H)-one trifluoroacetate] | < 100 nM | – | –
Cn1nc(-c2ccncc2)c2scc(-c3cncnc3)c2c1=O [Example 6, 5-methyl-7-(pyridin-4-yl)-3-(pyrimidin-5-yl)thieno[2,3-d]pyridazin-4(5H)-one] | < 100 nM | – | –
CN(C)c1cccc(-c2nn(C)c(=O)c3c(-c4ccncc4)csc23)c1 [Example 119, 7-[3-(dimethylamino)phenyl]-5-methyl-3-(pyridin-4-yl)thieno[2,3-d]pyridazin-4(5H)-one bis(trifluoroacetate)] | < 100 nM | – | –
Cn1nc(-c2cccc(C(F)(F)F)c2)c2scc(-c3ccncc3)c2c1=O [Example 114, 5-methyl-3-(pyridin-4-yl)-7-[3-(trifluoromethyl)phenyl]thieno[2,3-d]pyridazin-4(5H)-one trifluoroacetate] | 100 to 200 nM | – | –
COc1cc(OC)cc(-c2nn(C)c(=O)c3c(-c4ccncc4)csc23)c1 [Example 111, 7-(3,5-dimethoxyphenyl)-5-methyl-3-(pyridin-4-yl)thieno[2,3-d]pyridazin-4(5H)-one trifluoroacetate] | 100 to 200 nM | – | –
Cn1nc(-c2ccccc2F)c2scc(-c3ccncc3)c2c1=O [Example 115, 7-(2-fluorophenyl)-5-methyl-3-(pyridin-4-yl)thieno[2,3-d]pyridazin-4(5H)-one trifluoroacetate] | 200 to 500 nM | – | –
Cn1nc(-c2cnn(CC(F)(F)F)c2)c2scc(-c3ccncc3)c2c1=O [Example 100, 5-methyl-3-(pyridin-4-yl)-7-[1-(2,2,2-trifruoroethyl)-1H-pyrazol-4-yl]thieno[2,3-d]pyridazin-4(5H)-one bis(trifluoroacetate)] | < 100 nM | – | –
Cc1cc(-c2nn(C)c(=O)c3c(-c4ccncc4)csc23)ccn1 [Example 120, 5-methyl-7-(2-methylpyridin-4-yl)-3-(pyridin-4-yl)thieno[2,3-d]pyridazin-4(5H)-one bis(trifluoroacetate)] | < 100 nM | – | –
Cn1nc(-c2ccnc(F)c2)c2scc(-c3ccncc3)c2c1=O [Example 104, 7-(2-fluoropyridin-4-yl)-5-methyl-3-(pyridin-4-yl)thieno[2,3-d]pyridazin-4(5H)-one bis(trifluoroacetate)] | 100 to 200 nM | – | –
Cn1nc(N2CCCCC2)c2scc(-c3ccncc3)c2c1=O [Example 47, 5-methyl-7-(piperidin-1-yl)-3-(pyridin-4-yl)thieno[2,3-d]pyridazin-4(5H)-one] | – | + (+: 100-220 μl min^−1 mg^−1) | + (+: 100-220 μl min^−1 mg^−1)
Cn1nc(-c2ccncc2)c2scc(-c3ccc(NS(C)(=O)=O)cc3)c2c1=O.O=C(O)C(F)(F)F [Example 33, N-{4-[5-methyl-4-oxo-7-(pyridin-4-yl)-4,5-dihydrothieno[2,3-d]pyridazin-3-yl]phenyl}methanesulfonamide trifluoroacetate] | – | ∘ (∘ not avialable or >220 μl min^−1 mg^−1) | ++ (++: <100 μl min^−1 mg^−1)
COc1cccc(-c2csc3c(-c4ccncc4)nn(C)c(=O)c23)c1.O=C(O)C(F)(F)F [Example 30, 3-(3-methoxyphenyl)-5-methyl-7-(pyridin-4-yl)thieno[2,3-d]pyridazin-4(5H)-one trifluoroacetate] | – | + (+: 100-220 μl min^−1 mg^−1) | + (+: 100-220 μl min^−1 mg^−1)
3-(4-fluorophenyl)-5-methyl-7-(pyridin-4-yl)thieno[2,3-d]pyridazin-4(5H)-one [Example 48] | – | ++ (++: <100 μl min^−1 mg^−1) | ++ (++: <100 μl min^−1 mg^−1)
Cn1nc(-c2ccncc2)c2scc(-c3cccc(-n4cccn4)c3)c2c1=O.O=C(O)C(F)(F)F.O=C(O)C(F)(F)F [Example 24, 5-methyl-3-[3-(1H-pyrazol-1-yl)phenyl]-7-(pyridin-4-yl)thieno[2,3-d]pyridazin-4(5H)-one bis(trifluoroacetate)] | – | + (+: 100-220 μl min^−1 mg^−1) | ∘ (∘ not avialable or >220 μl min^−1 mg^−1)
Cn1nc(-c2ccncc2)c2scc(-c3cccc(C(=O)N4CCOCC4)c3)c2c1=O [Example 32, 5-methyl-3-[3-(morpholin-4-ylcarbonyl)phenyl]-7-(pyridin-4-yl)thieno[2,3-d]pyridazin-4(5H)-one trifluoroacetate] | – | ++ (++: <100 μl min^−1 mg^−1) | ++ (++: <100 μl min^−1 mg^−1)
Cn1cc(-c2csc3c(-c4ccncc4)nn(C)c(=O)c23)cn1.O=C(O)C(F)(F)F [Example 37, 5-methyl-3-(1-methyl-1H-pyrazol-4-yl)-7-(pyridin-4-yl)thieno[2,3-d]pyridazin-4(5H)-one trifluoroacetate] | – | + (+: 100-220 μl min^−1 mg^−1) | ++ (++: <100 μl min^−1 mg^−1)
CC(C)c1cccc(COc2nn(C)c(=O)c3c(-c4ccncc4)csc23)c1.O=C(O)C(F)(F)F [Example 65, 5-methyl-7-{[3-(propan-2-yl)benzyl]oxy}-3-(pyridin-4-yl)thieno[2,3-d]pyridazin-4(5H)-one trifluoroacetate] | – | + (+: 100-220 μl min^−1 mg^−1) | ∘ (∘ not avialable or >220 μl min^−1 mg^−1)
CN1CCN(Cc2ccc(-c3csc4c(-c5ccncc5)nn(C)c(=O)c34)cc2)CC1.O=C(O)C(F)(F)F.O=C(O)C(F)(F)F.O=C(O)C(F)(F)F [Example 43, 5-methyl-3-{4-[(4-methylpiperazin-1-yl)methyl]phenyl}-7-(pyridin-4-yl)thieno[2,3-d]pyridazin-4(5H)-one tris(trifluoroacetate)] | – | ++ (++: <100 μl min^−1 mg^−1) | ++ (++: <100 μl min^−1 mg^−1)
Cn1nc(OCC2CCC(F)(F)CC2)c2scc(-c3ccncc3)c2c1=O [Example 66, 7-[(4,4-difluorocyclohexyl)methoxy]-5-methyl-3-(pyridin-4-yl)thieno[2,3-d]pyridazin-4(5H)-one] | – | ++ (++: <100 μl min^−1 mg^−1) | ++ (++: <100 μl min^−1 mg^−1)
Cn1nc(-c2ccncc2)c2scc(-c3cnn(Cc4ccccc4)c3)c2c1=O.O=C(O)C(F)(F)F.O=C(O)C(F)(F)F [Example 41, 3-(1-benzyl-1H-pyrazol-4-yl)-5-methyl-7-(pyridin-4-yl)thieno[2,3-d]pyridazin-4(5H)-one bis(trifluoroacetate)] | – | ++ (++: <100 μl min^−1 mg^−1) | + (+: 100-220 μl min^−1 mg^−1)
Cn1nc(OCc2ccc3c(c2)CN(C(=O)OC(C)(C)C)C3)c2scc(-c3ccncc3)c2c1=O [Example 80, tert-butyl 5-({[5-methyl-4-oxo-3-(pyridin-4-yl)-4,5-dihydrothieno[2,3-d]pyridazin-7-yl]oxy}methyl)-1,3-dihydro-2H-isoindole-2-carboxylate] | – | ++ (++: <100 μl min^−1 mg^−1) | ++ (++: <100 μl min^−1 mg^−1)
